Data taken from patent US6372431B1, “Mammalian toxicological response markers” (Incyte Genomics, Inc., priority 1999, dated 2002).
Where two headings read alike, the source gives them in different places.

How the values were obtained:
P450 3A2 = test: microarray gene expression in treated rat liver; assay type: in vivo; settings: clofibrate-treated rat liver, 250 mg/kg bw i.p. single dose
Protocol: (§1) For each target preparation, frozen liver was homogenized and lysed in TRIZOL reagent (Life Technologies, Gaithersburg Md.) following the modifications for liver RNA isolation. Messenger RNA was isolated using an OLIGOTEX kit (QIAGEN) and labeled with either Cy3- or Cy5-labeled primers (Operon Technologies, Alameda Calif.) using the GEMBRIGHT labeling kit (Incyte Pharmaceuticals). […] Quantitative and differential expression pattern control cDNAs were added to each labeling reaction. Labeled cDNA was treated with 0.5 M sodium bicarbonate. (pH 9.2) for 20 min at 85 ° C. to degrade the RNA and purified using two successive CHROMA SPIN 30 gel filtration spin columns (Clontech, Palo Alto Calif.). Cy3-labeled control sample and Cy5-labeled experimental sample were combined and precipitated in glycogen, sodium acetate, and ethanol.
(§2) Hybridizations were carried out using the methods described by Shalon (supra).
(§3) The microscope used to detect the reporter-labeled hybridization complexes was equipped with an Innova 70 mixed gas 10 W laser (Coherent Lasers, Santa Clara Calif.) capable of generating spectral lines at 488 nm for excitation of Cy3, and 632 nm for excitation of Cy5. The excitation laser light was focused on the array using a 20×microscope objective (Nikon, Melville N.Y.). The slide containing the array was placed on a computer-controlled X-Y stage on the microscope and raster-scanned past the objective. The 1.8 cm×1.8 cm array used in the present example was scanned with a resolution of 20 micrometers.
(§4) In two separate scans, a mixed gas multiline laser excited the two fluorophores sequentially. Emitted light was split, based on wavelength, into two photomultiplier tube detectors (PMT R1477, Hamamatsu Photonics, San Jose Calif.) corresponding to the two fluorophores. Appropriate filters positioned between the array and the photomultiplier tubes were used to filter the signals. The emission maxima of the fluorophores used were 565 nm for Cy3 and 650 nm for Cy5. Each array was typically scanned twice, one scan per fluorophore using the appropriate filters at the laser source, although the apparatus was capable of recording the spectra from both fluorophores simultaneously.
(§5) When two probes from different sources (e.g., representing test and control cells), each labeled with a different fluorophore, are hybridized to a single array for the purpose of identifying genes that are differentially expressed, the calibration was done by labeling samples of the calibrating cDNA with the two fluorophores and adding identical amounts of each to the hybridization mixture.
(§6) A grid was superimposed over the fluorescence signal image such that the signal from each spot was centered in each element of the grid. The fluorescence signal within each element was then integrated to obtain a numerical value corresponding to the average intensity of the signal. The software used for signal analysis was the GEMTOOLS gene expression analysis program (Incyte Pharmaceuticals).

P450 4A = test: microarray gene expression in treated rat liver; assay type: in vivo; settings: clofibrate-treated rat liver, 250 mg/kg bw i.p. single dose
Protocol: as §1, §2, §3, §4, §5, §6

P450 LA-omega 4A3 = test: microarray gene expression in treated rat liver; assay type: in vivo; settings: clofibrate-treated rat liver, 250 mg/kg bw i.p. single dose
Protocol: as §1, §2, §3, §4, §5, §6

SEQ ID NO:4 = test: microarray gene expression in treated rat liver; assay type: in vivo; settings: CLO-treated rat liver, 250 mg/kg bw i.p. single dose
Protocol: as §1, §2, §3, §4, §5, §6

SEQ ID NO:2 = settings: male, Sprague-Dawley, rat, in vivo, ip, 250 mg/kg
Protocol: as §1, §2, §3, §4, §5, §6

SEQ ID NO:3 = settings: male, Sprague-Dawley, rat, in vivo, ip, 250 mg/kg
Protocol: as §1, §2, §3, §4, §5, §6

SEQ ID NO:5 = settings: male, Sprague-Dawley, rat, in vivo, ip, 250 mg/kg
Protocol: as §1, §2, §3, §4, §5, §6

SEQ ID NO:8 = settings: male, Sprague-Dawley, rat, in vivo, ip, 250 mg/kg
Protocol: as §1, §2, §3, §4, §5, §6

For `CCOC(=O)C(C)(C)Oc1ccc(Cl)cc1` [clofibrate], the “Gene expression (x-fold change) of P450 3A2” value (P450 3A2; 12 hours) was 0.14 x-fold change, the “Gene expression (x-fold change) of P450 3A2” value (P450 3A2; 24 hours) was 1.2 x-fold change and the “Gene expression (x-fold change) of P450 3A2” value (P450 3A2; 3 days) was 0.63 x-fold change. For the same molecule, the “Gene expression (x-fold change) of P450 3A2” value (P450 3A2; 7 days) was 0.50 x-fold change, the “Gene expression (x-fold change) of P450 3A2” value (P450 3A2; 28 days) was 0.45 x-fold change and the “Gene expression (x-fold change) of P450 4A” value (P450 4A; 12 hours) was 7.0 x-fold change. For the same molecule, the “Gene expression (x-fold change) of P450 4A” value (P450 4A; 24 hours) was 16.6 x-fold change, the “Gene expression (x-fold change) of P450 4A” value (P450 4A; 3 days) was 1.4 x-fold change and the “Gene expression (x-fold change) of P450 4A” value (P450 4A; 7 days) was 0.5 x-fold change. For the same molecule, the “Gene expression (x-fold change) of P450 4A” value (P450 4A; 28 days) was 1.3 x-fold change, the “Gene expression (x-fold change) of P450 LA-omega 4A3” value (P450 LA-omega 4A3; 12 hours) was 14.8 x-fold change and the “Gene expression (x-fold change) of P450 LA-omega 4A3” value (P450 LA-omega 4A3; 24 hours) was 26.6 x-fold change. For the same molecule, the “Gene expression (x-fold change) of P450 LA-omega 4A3” value (P450 LA-omega 4A3; 3 days) was 1.1 x-fold change, the “Gene expression (x-fold change) of P450 LA-omega 4A3” value (P450 LA-omega 4A3; 7 days) was 0.5 x-fold change and the “Gene expression (x-fold change) of P450 LA-omega 4A3” value (P450 LA-omega 4A3; 28 days) was 0.47 x-fold change. For the same molecule, the “Gene expression (x-fold change) of SEQ ID NO: 4” value (SEQ ID NO:4; 12 hours) was 2 x-fold change, the “Gene expression (x-fold change) of SEQ ID NO: 4” value (SEQ ID NO:4; 24 hours) was 0.36 x-fold change and the “Gene expression (x-fold change) of SEQ ID NO: 4” value (SEQ ID NO:4; 3 days) was 0.47 x-fold change. For the same molecule, the “Gene expression (x-fold change) of SEQ ID NO: 4” value (SEQ ID NO:4; 7 days) was 0.26 x-fold change, the “Gene expression (x-fold change) of SEQ ID NO: 4” value (SEQ ID NO:4; 28 days) was 0.30 x-fold change and the “Gene expression (x-fold change) of SEQ ID NO: 2” value (SEQ ID NO:2; 12 h) was 2.6 x-fold change. The “Gene expression (x-fold change) of SEQ ID NO: 2” value (SEQ ID NO:2; 24 h) was 1.4 x-fold change, the “Gene expression (x-fold change) of SEQ ID NO: 2” value (SEQ ID NO:2; 3 days) was 0.5 x-fold change and the “Gene expression (x-fold change) of SEQ ID NO: 2” value (SEQ ID NO:2; 7 days) was 1.1 x-fold change. The “Gene expression (x-fold change) of SEQ ID NO: 2” value (SEQ ID NO:2; 28 days) was 1.2 x-fold change, the “Gene expression (x-fold change) of SEQ ID NO: 3” value (SEQ ID NO:3; 12 h) was 1.3 x-fold change and the “Gene expression (x-fold change) of SEQ ID NO: 3” value (SEQ ID NO:3; 24 h) was 2 x-fold change. For the same molecule, the “Gene expression (x-fold change) of SEQ ID NO: 3” value (SEQ ID NO:3; 3 days) was 1.3 x-fold change, the “Gene expression (x-fold change) of SEQ ID NO: 3” value (SEQ ID NO:3; 7 days) was 1.5 x-fold change and the “Gene expression (x-fold change) of SEQ ID NO: 3” value (SEQ ID NO:3; 28 days) was 1.5 x-fold change. For the same molecule, the “Gene expression (x-fold change) of SEQ ID NO: 5” value (SEQ ID NO:5; 12 h) was 1.7 x-fold change, the “Gene expression (x-fold change) of SEQ ID NO: 5” value (SEQ ID NO:5; 24 h) was 2.9 x-fold change and the “Gene expression (x-fold change) of SEQ ID NO: 5” value (SEQ ID NO:5; 3 days) was 1.6 x-fold change. The “Gene expression (x-fold change) of SEQ ID NO: 5” value (SEQ ID NO:5; 7 days) was 1.5 x-fold change, the “Gene expression (x-fold change) of SEQ ID NO: 5” value (SEQ ID NO:5; 28 days) was 1.2 x-fold change and the “Gene expression (x-fold change) of SEQ ID NO: 8” value (SEQ ID NO:8; 12 h) was 2.6 x-fold change. The “Gene expression (x-fold change) of SEQ ID NO: 8” value (SEQ ID NO:8; 24 h) was 1.7 x-fold change, the “Gene expression (x-fold change) of SEQ ID NO: 8” value (SEQ ID NO:8; 3 days) was 1.3 x-fold change and the “Gene expression (x-fold change) of SEQ ID NO: 8” value (SEQ ID NO:8; 7 days) was 1.3 x-fold change. The “Gene expression (x-fold change) of SEQ ID NO: 8” value (SEQ ID NO:8; 28 days) was 1.4 x-fold change.
